One test addresses T1, PI3K alpha (Homo sapiens, UniProt P42336).
T1 construct: purchased Invitrogen Corp., Carlsbad, CA, USA
Kind of test: Luciferase-based luminescence assay (KinaseGlo), PI3K alpha enzymatic activity. The test is classed as biochemical. The conditions noted are these: inhibition of enzymatic activity, 25 μM ATP, read-out: IC50 p110α. The gist of the method: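 KinaseGlo luminescence measured ATP remaining after PIP2 (50 μM) phosphorylation with 25 μM ATP in HEPES pH 7.5 buffer with CHAPS and DTT. Final enzyme was 1.65 nM alpha (1 h reaction) or 6.86 nM delta (2 h reaction). IC50 was curve-fitted from 10 concentrations.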
On the technique in general: In Kinase-Glo more light means more ATP remaining.

Another test addresses T2, PI3Kγ (Mus musculus, UniProt Q9JHG7).
T2 construct: endogenous in cells; host or cells: RAW 264.7 (ATCC #TIB-71)
Put plainly: ELISA assay for PI3Kγ: in-cell ELISA, phosphorylation of AKT (Ser473) in RAW 264.7 cells. It is filed as cell-based. The conditions noted are these: cellular, pAKT (Ser473), C5a stimulation, read-out: IC50 p110γ. The procedure: PI3K gamma (PI3Kγ) activity was determined by measuring the phosphorylation of AKT (Ser473) using an in-cell ELISA assay. RAW 264.7 (mouse macrophage) cells were obtained from ATCC (ATCC #TIB-71). Growth medium was DMEM (CellGro #CV-10-013-CV) supplemented with 10% fetal bovine serum, 100 IU/mL penicillin, 100 μg/mL streptomycin, and 1×MEM non-essential amino acids. Phosphate buffered saline (PBS) contained 2.7 M NaCl, 54 mM KCl, 86 mM […] (dibasic, anhydrous), and 28 mM […] (monobasic, anhydrous) at pH 7.2. Stimulation mixture (10×) was 500 ng/mL recombinant human complement component C5a (R&D systems #2037-C5-025) diluted in serum-free DMEM medium (CellGro #CV-10-013-CV). Compounds for testing were dissolved and serially diluted in 100% DMSO (total of 10 concentrations), then diluted in serum-free DMEM to 2× final assay concentration. Fixative solution (2×) was 8% formaldehyde (Amresco #M134) diluted in PBS. Permeabilization solution was PBS supplemented with 0.10% Triton X-100. Blocking buffer was obtained from LiCor (LiCor #927-40000). Wash buffer was PBS supplemented with 0.1% Tween-20. Primary antibody solution was rabbit anti-pAKT^S473 monoclonal antibody (Cell Signaling #4060) and mouse anti-total S6 (Santa Cruz #74459) diluted 1:500 and 1:2000, respectively, in the blocking buffer. Secondary antibody solution was IRDye 800CW-conjugated goat anti-rabbit IgG (LiCor #926-32211) and IRDye 680LT-conjugated goat anti-mouse IgG (LiCor #926-68020) diluted 1:1000 and 1:2000, respectively, in the blocking buffer.
RAW 264.7 cells were subcultured in growth medium and seeded into flat, clear bottom, 96-well plates (Corning #3904) at 70000 cells/well, then incubated overnight in a 37° C., 5% CO2 incubator. Growth medium in plates was replaced with 100 μL/well serum-free DMEM and incubated overnight in a 37° C., 5% CO2 incubator. Fresh serum-free DMEM (50 μL/well) was added to plates. Compound treatment was performed by adding 50 μL/well of 2× compound mixture to plates and incubating for 2 hrs at 37° C., 5% CO2, after which 11 μL/well of 10× stimulation mixture was added and plates were incubated for 3 min at 37° C., 5% CO2. Fixation was performed by adding 110 μL/well of 2× fixative solution to plates and incubating for 20 min at room temperature. Permeabilization was performed by replacing fixation solution with 150 μL/well permeabilization solution and incubating for 10 min at room temperature. Permeabilization was repeated (for a total of 2 times). Permeabilization solution was replaced with 100 μL/well blocking buffer and plates were incubated for 1 hr at room temperature, after which 100 μL/well of primary antibody solution was added and plates were incubated overnight at 4° C. Plates were washed with wash buffer, after which 100 μL/well of secondary antibody solution was added to the plates and incubated in the dark for 1 hr at room temperature. Plates were washed with wash buffer, followed by awash with PBS. After completely removing PBS, plates were scanned on the Licor Odyssey Imager. Images were quantified using Licor Odyssey application software. IC50 values were determined by curve fitting using a Collaborative Drug Discovery database (www.collaborativedrug.com).
On the technique in general: An ELISA detects its analyte on a solid surface through an enzyme-linked reagent.

T1 sequence (P42336 whole entry, species assumed): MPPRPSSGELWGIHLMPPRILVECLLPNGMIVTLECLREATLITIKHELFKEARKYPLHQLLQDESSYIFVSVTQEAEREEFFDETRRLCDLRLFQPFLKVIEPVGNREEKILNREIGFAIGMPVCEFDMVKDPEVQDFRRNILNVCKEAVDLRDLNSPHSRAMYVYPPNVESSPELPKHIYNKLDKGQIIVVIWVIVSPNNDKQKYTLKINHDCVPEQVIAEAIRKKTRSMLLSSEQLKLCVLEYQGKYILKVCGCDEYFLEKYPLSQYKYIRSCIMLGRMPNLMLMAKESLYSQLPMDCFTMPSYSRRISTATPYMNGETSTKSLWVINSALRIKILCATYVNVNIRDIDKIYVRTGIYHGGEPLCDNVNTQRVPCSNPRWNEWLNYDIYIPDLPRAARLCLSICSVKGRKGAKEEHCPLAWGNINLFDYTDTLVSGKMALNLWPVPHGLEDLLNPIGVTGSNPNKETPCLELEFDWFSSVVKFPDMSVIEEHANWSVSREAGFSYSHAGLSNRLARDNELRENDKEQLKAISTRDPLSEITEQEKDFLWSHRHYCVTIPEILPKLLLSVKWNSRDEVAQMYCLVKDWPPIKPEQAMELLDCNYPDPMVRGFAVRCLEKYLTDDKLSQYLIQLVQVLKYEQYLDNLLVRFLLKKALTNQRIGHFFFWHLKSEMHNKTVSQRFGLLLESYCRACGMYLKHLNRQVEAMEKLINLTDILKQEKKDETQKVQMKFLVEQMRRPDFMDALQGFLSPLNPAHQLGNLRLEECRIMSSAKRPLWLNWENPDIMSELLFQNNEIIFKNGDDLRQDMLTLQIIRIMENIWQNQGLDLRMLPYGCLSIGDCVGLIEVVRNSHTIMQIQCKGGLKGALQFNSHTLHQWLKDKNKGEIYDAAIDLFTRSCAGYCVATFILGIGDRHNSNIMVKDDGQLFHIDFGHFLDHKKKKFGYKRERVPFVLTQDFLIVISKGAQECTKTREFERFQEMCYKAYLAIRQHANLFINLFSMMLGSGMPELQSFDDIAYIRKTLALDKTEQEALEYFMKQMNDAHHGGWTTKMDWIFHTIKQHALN
T1 sequence (P27986 whole entry partner, species assumed): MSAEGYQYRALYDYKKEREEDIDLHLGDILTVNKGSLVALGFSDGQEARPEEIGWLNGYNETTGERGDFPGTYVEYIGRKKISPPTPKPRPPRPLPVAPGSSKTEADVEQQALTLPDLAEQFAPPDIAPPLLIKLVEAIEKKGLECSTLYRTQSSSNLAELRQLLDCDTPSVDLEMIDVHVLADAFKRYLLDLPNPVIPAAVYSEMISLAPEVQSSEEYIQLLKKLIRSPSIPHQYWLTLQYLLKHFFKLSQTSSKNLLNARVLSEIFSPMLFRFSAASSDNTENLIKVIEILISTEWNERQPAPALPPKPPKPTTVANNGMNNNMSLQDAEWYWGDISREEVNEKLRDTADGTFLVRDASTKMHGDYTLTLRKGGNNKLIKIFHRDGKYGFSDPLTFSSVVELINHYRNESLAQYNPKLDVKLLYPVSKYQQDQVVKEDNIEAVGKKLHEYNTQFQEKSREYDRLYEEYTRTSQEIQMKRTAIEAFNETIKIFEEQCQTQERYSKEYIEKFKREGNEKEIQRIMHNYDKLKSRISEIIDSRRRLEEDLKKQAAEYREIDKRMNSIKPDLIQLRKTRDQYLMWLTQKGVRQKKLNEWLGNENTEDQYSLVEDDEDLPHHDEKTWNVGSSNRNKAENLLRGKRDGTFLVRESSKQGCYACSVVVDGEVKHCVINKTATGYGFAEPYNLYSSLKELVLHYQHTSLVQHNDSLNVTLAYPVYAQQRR
T2 sequence (Q9JHG7 whole entry): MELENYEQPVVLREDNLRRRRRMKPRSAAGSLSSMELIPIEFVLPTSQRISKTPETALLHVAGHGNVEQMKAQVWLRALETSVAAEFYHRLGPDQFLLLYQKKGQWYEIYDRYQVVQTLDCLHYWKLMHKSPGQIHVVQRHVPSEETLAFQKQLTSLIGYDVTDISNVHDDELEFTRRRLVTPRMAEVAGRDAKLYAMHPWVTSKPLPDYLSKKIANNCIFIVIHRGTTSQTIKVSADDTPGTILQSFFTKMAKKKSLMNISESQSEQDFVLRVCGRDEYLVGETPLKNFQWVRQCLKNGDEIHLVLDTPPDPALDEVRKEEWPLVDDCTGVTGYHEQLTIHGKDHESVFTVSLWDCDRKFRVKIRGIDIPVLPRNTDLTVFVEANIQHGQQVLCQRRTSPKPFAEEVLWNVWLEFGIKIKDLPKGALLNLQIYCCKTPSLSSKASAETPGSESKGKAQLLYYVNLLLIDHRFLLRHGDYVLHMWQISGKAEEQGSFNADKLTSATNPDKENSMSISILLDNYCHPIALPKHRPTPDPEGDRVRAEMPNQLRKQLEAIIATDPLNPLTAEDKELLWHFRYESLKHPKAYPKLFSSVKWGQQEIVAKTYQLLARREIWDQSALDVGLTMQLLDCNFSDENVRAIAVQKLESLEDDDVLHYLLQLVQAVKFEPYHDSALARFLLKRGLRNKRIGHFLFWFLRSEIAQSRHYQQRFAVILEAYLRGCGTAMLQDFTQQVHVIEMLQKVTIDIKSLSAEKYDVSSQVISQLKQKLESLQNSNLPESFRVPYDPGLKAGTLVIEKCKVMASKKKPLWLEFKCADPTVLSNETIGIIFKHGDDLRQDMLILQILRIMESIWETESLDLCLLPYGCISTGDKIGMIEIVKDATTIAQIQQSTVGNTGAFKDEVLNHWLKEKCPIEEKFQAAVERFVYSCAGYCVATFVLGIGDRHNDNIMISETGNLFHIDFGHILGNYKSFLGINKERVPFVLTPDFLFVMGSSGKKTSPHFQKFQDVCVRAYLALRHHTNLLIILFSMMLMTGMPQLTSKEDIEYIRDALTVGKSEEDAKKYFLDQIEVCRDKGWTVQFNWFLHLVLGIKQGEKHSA

As a reminder, the IC50 is the concentration that inhibits the measured activity by half. As to `COc1cc(CC(C)(C)Nc2nc(N3CCOCC3)nc(-n3c(C(F)F)nc4ccccc43)n2)ccc1F` [Compound A50, 4-(2-(difluoromethyl)-1H-benzo[d]imidazol-1-yl)-N-(1-(4-fluoro-3-methoxyphenyl)-2-methylpropan-2-yl)-6-morpholino-1,3,5-triazin-2-amine], the IC50 at PI3K alpha was > 500 nM; at PI3Kγ, 200 to 500 nM.
On the same counts, the results for `CC(C)(Cc1ccc(F)cc1F)Nc1nc(N2CCOCC2)nc(-n2c(C(F)F)nc3ccccc32)n1` [Compound A51, 4-(2-(difluoromethyl)-1H-benzo[d]imidazol-1-yl)-N-(1-(2,4-difluorophenyl)-2-methylpropan-2-yl)-6-morpholino-1,3,5-triazin-2-amine] are > 500 nM and 100 to 200 nM.
For `CC(C)(Cc1c(F)cccc1F)Nc1nc(N2CCOCC2)nc(-n2c(C(F)F)nc3ccccc32)n1` [Compound A52, 4-(2-(difluoromethyl)-1H-benzo[d]imidazol-1-yl)-N-(1-(2,6-difluorophenyl)-2-methylpropan-2-yl)-6-morpholino-1,3,5-triazin-2-amine], in that order: > 500 nM and 100 to 200 nM.
For `CC(C)(Cc1ccccc1-c1ccccc1F)Nc1nc(N2CCOCC2)nc(-n2c(C(F)F)nc3ccccc32)n1` [Compound A59, 4-(2-(difluoromethyl)-1H-benzo[d]imidazol-1-yl)-N-(1-(2′-fluorobiphenyl-2-yl)-2-methylpropan-2-yl)-6-morpholino-1,3,5-triazin-2-amine], the 50% inhibitory concentration (IC50) on PI3K alpha and on PI3Kγ was > 500 nM each time.
Turning to `Cc1ccccc1-c1ccccc1CC(C)(C)Nc1nc(N2CCOCC2)nc(-n2c(C(F)F)nc3ccccc32)n1` [Compound A60, 4-(2-(difluoromethyl)-1H-benzo[d]imidazol-1-yl)-N-(2-methyl-1-(2′-methylbiphenyl-2-yl)propan-2-yl)-6-morpholino-1,3,5-triazin-2-amine], the half-maximal inhibitory concentration (IC50) at PI3K alpha and on PI3Kγ was > 500 nM in each case.
Turning to `CC(C)(Cc1ccccc1-c1ccccc1Cl)Nc1nc(N2CCOCC2)nc(-n2c(C(F)F)nc3ccccc32)n1` [Compound A61, 4-(2-(difluoromethyl)-1H-benzo[d]imidazol-1-yl)-N-(1-(6′-chlorobiphenyl-2-yl)-2-methylpropan-2-yl)-6-morpholino-1,3,5-triazin-2-amine], the 50% inhibitory concentration (IC50) at PI3K alpha and at PI3Kγ was > 500 nM in each case.
For the compound `CC(C)(Cc1ccccc1-c1cccnc1F)Nc1nc(N2CCOCC2)nc(-n2c(C(F)F)nc3ccccc32)n1` [Compound A62], the 50% inhibitory concentration (IC50) at PI3K alpha is > 500 nM; at PI3Kγ, 200 to 500 nM.
Turning to `CC(C)(Cc1ccccc1-c1cncnc1)Nc1nc(N2CCOCC2)nc(-n2c(C(F)F)nc3ccccc32)n1` [Compound A63, 4-(2-(difluoromethyl)-1H-benzo[d]imidazol-1-yl)-N-(2-methyl-1-(2-(pyrimidin-5-yl)phenyl)propan-2-yl)-6-morpholino-1,3,5-triazin-2-amine], the IC50 is 200 to 500 nM on PI3K alpha and > 500 nM at PI3Kγ.
For `CN1CCN(c2cc(-c3ccccc3CC(C)(C)Nc3nc(N4CCOCC4)nc(-n4c(C(F)F)nc5ccccc54)n3)ccn2)CC1` [Compound A64, 4-(2-(difluoromethyl)-1H-benzo[d]imidazol-1-yl)-N-(2-methyl-1-(2-(2-(4-methylpiperazin-1-yl)pyridin-4-yl)phenyl)propan-2-yl)-6-morpholino-1,3,5-triazin-2-amine], in that order: > 500 nM and > 500 nM.
For `CC(C)(Cc1ccccc1-c1cccc(CN2CCOCC2)c1)Nc1nc(N2CCOCC2)nc(-n2c(C(F)F)nc3ccccc32)n1` [Compound A65, 4-(2-(difluoromethyl)-1H-benzo[d]imidazol-1-yl)-N-(2-methyl-1-(3′-(morpholinomethyl)biphenyl-2-yl)propan-2-yl)-6-morpholino-1,3,5-triazin-2-amine], in that order: > 500 nM and 200 to 500 nM.
For `COc1cccc(-c2ccccc2CC(C)(C)Nc2nc(N3CCOCC3)nc(-n3c(C(F)F)nc4ccccc43)n2)c1` [Compound A66, 4-(2-(difluoromethyl)-1H-benzo[d]imidazol-1-yl)-N-(1-(3′-methoxybiphenyl-2-yl)-2-methylpropan-2-yl)-6-morpholino-1,3,5-triazin-2-amine], in that order: > 500 nM and > 500 nM.
`COc1ccc(-c2ccccc2CC(C)(C)Nc2nc(N3CCOCC3)nc(-n3c(C(F)F)nc4ccccc43)n2)cc1` [Compound A67, 4-(2-(difluoromethyl)-1H-benzo[d]imidazol-1-yl)-N-(1-(4′-methoxybiphenyl-2-yl)-2-methylpropan-2-yl)-6-morpholino-1,3,5-triazin-2-amine]: the IC50 at PI3K alpha and on PI3Kγ was > 500 nM throughout.
Regarding `CC(C)(Cc1ccccc1C1CCNCC1)Nc1nc(N2CCOCC2)nc(-n2c(C(F)F)nc3ccccc32)n1` [Compound A68, 4-(2-(difluoromethyl)-1H-benzo[d]imidazol-1-yl)-N-(2-methyl-1-(2-(piperidin-4-yl)phenyl)propan-2-yl)-6-morpholino-1,3,5-triazin-2-amine], the IC50 at PI3K alpha was > 500 nM; on PI3Kγ, 200 to 500 nM.
On the same counts, the results for `CCN1CCC(c2ccccc2CC(C)(C)Nc2nc(N3CCOCC3)nc(-n3c(C(F)F)nc4ccccc43)n2)CC1` [Compound A70, 4-(2-(difluoromethyl)-1H-benzo[d]imidazol-1-yl)-N-(1-(2-(1-ethylpiperidin-4-yl)phenyl)-2-methylpropan-2-yl)-6-morpholino-1,3,5-triazin-2-amine] are > 500 nM and > 500 nM.
On the same counts, the results for `CC(C)N1CCC(c2ccccc2CC(C)(C)Nc2nc(N3CCOCC3)nc(-n3c(C(F)F)nc4ccccc43)n2)CC1` [Compound A71, 4-(2-(difluoromethyl)-1H-benzo[d]imidazol-1-yl)-N-(1-(2-(1-isopropylpiperidin-4-yl)phenyl)-2-methylpropan-2-yl)-6-morpholino-1,3,5-triazin-2-amine] are > 500 nM and > 500 nM.
On the same counts, the results for `CC(=O)N1CCC(c2ccccc2CC(C)(C)Nc2nc(N3CCOCC3)nc(-n3c(C(F)F)nc4ccccc43)n2)CC1` [Compound A72, 4-(2-(difluoromethyl)-1H-benzo[d]imidazol-1-yl)-N-(2-methyl-1-(2-(1-acetylpiperidin-4-yl)phenyl)propan-2-yl)-6-morpholino-1,3,5-triazin-2-amine] are 100 to 200 nM and ≤ 100 nM.
`CC(C)(Cc1ccccc1C1CCN(S(C)(=O)=O)CC1)Nc1nc(N2CCOCC2)nc(-n2c(C(F)F)nc3ccccc32)n1` [Compound A73, 4-(2-(difluoromethyl)-1H-benzo[d]imidazol-1-yl)-N-(2-methyl-1-(2-(1-(methylsulfonyl)piperidin-4-yl)phenyl)propan-2-yl)-6-morpholino-1,3,5-triazin-2-amine]: the half-inhibitory concentration (IC50) at PI3K alpha was 200 to 500 nM; at PI3Kγ, ≤ 100 nM.
For `CC(C)(Cc1ccccc1C1CCNC1)Nc1nc(N2CCOCC2)nc(-n2c(C(F)F)nc3ccccc32)n1` (stereo not drawn) [Compound A74, 4-(2-(difluoromethyl)-1H-benzo[d]imidazol-1-yl)-N-(2-methyl-1-(2-(pyrrolidin-3-yl)phenyl)propan-2-yl)-6-morpholino-1,3,5-triazin-2-amine], in that order: > 500 nM and 200 to 500 nM.

Source of the values: patent publication US12059422B2 (MEI Pharma, Inc., priority 2011, dated 2024).
